Experimental data reported in ChEMBL document CHEMBL1156830, “Synthesis of fluorescent nucleoside analogs as probes for 2'-deoxyribonucleoside kinases” (Bioorg Med Chem Lett, 2010).

target: T1, Deoxynucleoside kinase (Drosophila melanogaster) (UniProt Q9XZT6); test: Activity at Drosophila melanogaster dNK at 10 uM by spectrophotometry
T1 sequence (whole entry): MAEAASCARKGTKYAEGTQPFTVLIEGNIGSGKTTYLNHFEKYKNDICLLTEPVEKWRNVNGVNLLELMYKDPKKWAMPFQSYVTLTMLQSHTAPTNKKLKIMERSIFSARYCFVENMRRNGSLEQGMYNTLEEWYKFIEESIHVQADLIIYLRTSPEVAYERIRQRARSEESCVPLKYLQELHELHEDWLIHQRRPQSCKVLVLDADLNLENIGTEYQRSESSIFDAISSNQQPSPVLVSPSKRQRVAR

Activity [%] | Structure (SMILES)
43 | Cc1cc2cn([C@H]3C[C@H](O)[C@@H](CO)O3)c(=O)nc2o1

target: T1, Deoxynucleoside kinase (Drosophila melanogaster); test: Activity at Drosophila melanogaster dNK at 100 uM by spectrophotometry

Structure (SMILES) | Activity [%]
Cc1cc2cn([C@H]3CC[C@@H](CO)O3)c(=O)nc2o1 | 30
Cc1cc2cn([C@H]3C=C[C@@H](CO)O3)c(=O)nc2o1 | 330
Cc1cc2cn([C@H]3C[C@H](O)[C@@H](CO)O3)c(=O)nc2[nH]1 | 128
Cc1cc2cn([C@H]3CC[C@@H](CO)O3)c(=O)nc2[nH]1 | 2.6

The remaining lines, values ahead:

Activity [%] | Structure (SMILES)
12 | Cc1cc2cn([C@H]3C[C@H](F)[C@@H](CO)O3)c(=O)nc2o1
12 | Cc1cc2cn([C@H]3C[C@H](N=[N+]=[N-])[C@@H](CO)O3)c(=O)nc2o1
